This assay addresses α7 NNR (UniProt Q05941). Conditions: [3H]-DPPB binding.
Protocol: [^3H]-DPPB, [^3H]-(S,S)-2,2-dimethyl-5-(6-phenyl-pyridazin-3-yl)-5-aza-2-azonia-bicyclo[2.2.1]heptane iodide, binding to the α7 NNR subtype was determined using membrane enriched fractions from rat brain minus cerebellum or human cortex (ABS Inc., Wilmington, Del.) as described in Anderson, D. J.; et al., J. Pharmacol. Exp. Ther. 2008, 324: 179-187 which is incorporated herein by reference. Briefly, pellets were thawed at 4° C., washed and resuspended with a Polytron at a setting of 7 in 30 volumes of BSS-Tris buffer (120 mM NaCl, 5 mM KCl, 2 mM CaCl2, 2 mM MgCl2, and 50 mM Tris-C1, pH 7.4, 4° C.). Seven log-dilution concentrations of test compounds containing 100-200 μg of protein, and 0.5 nM [^3H]-DPPB (62.8 Ci/mmol; R46V, Abbott Labs) were incubated in a final volume of 500 μL for 75 minutes at 4° C. in duplicate. Non-specific binding was determined in the presence of 10 μM methyllycaconitine. Bound radioactivity was collected on Millipore MultiScreen® harvest plates FB presoaked with 0.3% polyethyleneimine using a Packard cell harvester, washed with 2.5 mL ice-cold buffer, and radioactivity was determined using a Packard TopCount Microplate beta counter. IC50 values were determined by nonlinear regression in Microsoft® Excel or Assay Explorer. K, values were calculated from the IC50s using the Cheng-Prusoff equation, where Ki=IC50/(1+[Ligand]/KD) and are shown in Table 1.
The molecule “4-[5-(3,4-difluorophenyl)pyridin-3-yl]-1,4-diazatricyclo[4.3.1.1^3s]undecane [Example 99]” registered a Ki above 10000 nM. The figure for `O=C1NC2CC3CC1CN(C3)C2` (stereo not shown) [Example 1, 1,4-diazatricyclo[4.3.1.1^3,8]undecan-5-one] is 701 nM; for `O=C(c1cc2ccsc2cn1)N1CC2CC3CC1CN(C3)C2` (stereo not shown) [Example 3, 4-(thieno[2,3-c]pyridin-5-ylcarbonyl)-1,4-diazatricyclo[4.3.1.1^3,8]undecane] it is 11.6 nM. Next, `O=C(c1ccc2sccc2n1)N1CC2CC3CC1CN(C3)C2` (stereo not shown) [Example 4, 4-(thieno[3,2-b]pyridin-5-ylcarbonyl)-1,4-diazatricyclo[4.3.1.1^3,8]undecane]: 456 nM.

For `O=S1(=O)c2ccccc2-c2ccc(N3CC4CC5CC3CN(C5)C4)cc21` (stereo not shown) [Example 5, 4-(5,5-dioxidodibenzo[b,d]thien-3-yl)-1,4-diazatricyclo[4.3.1.1^3,8]undecane], the affinity corresponds to a Ki of 2.3 nM. On to `c1cc2cc(-c3ccc(N4CC5CC6CC4CN(C6)C5)nn3)ccc2s1` (stereo not shown) [Example 8, 4-[6-(1-benzothien-5-yl)pyridazin-3-yl]-1,4-diazatricyclo[4.3.1.1^3,8]undecane], for which the Ki stood at 3.5 nM. Next, `O=C(c1ccc2[nH]ccc2c1)N1CC2CC3CC1CN(C3)C2` (stereo not shown) [Example 37, 4-(1H-indol-5-ylcarbonyl)-1,4-diazatricyclo[4.3.1.1^3,8]undecane]: above 10000 nM. Next, `O=C(c1n[nH]c2ccccc12)N1CC2CC3CC1CN(C3)C2` (stereo not shown) [Example 57, 4-(1H-indazol-3-ylcarbonyl)-1,4-diazatricyclo[4.3.1.1^3,8]undecane]: 23.6 nM; `c1cc(-c2cncc(N3CC4CC5CC3CN(C5)C4)c2)c2cc[nH]c2c1` (stereo not shown) [Example 104, 4-[5-(1H-indol-4-yl)pyridin-3-yl]-1,4-diazatricyclo[4.3.1.1^3,8]undecane]: 26.3 nM. The figure for `COc1ccc(-c2cnc(N3CC4CC5CC3CN(C5)C4)s2)cc1` (stereo not shown) [Example 105, 4-[5-(4-methoxyphenyl)-1,3-thiazol-2-yl]-1,4-diazatricyclo[4.3.1.1^3,8]undecane] is 133 nM; for `Cc1ccc(-c2cnc(N3CC4CC5CC3CN(C5)C4)s2)cc1` (stereo not shown) [Example 106, 4-[5-(4-methylphenyl)-1,3-thiazol-2-yl]-1,4-diazatricyclo[4.3.1.1^3,8]undecane] it is 26.4 nM. Regarding `Fc1cccc(-c2cnc(N3CC4CC5CC3CN(C5)C4)s2)c1` (stereo not shown) [Example 108, 4-[5-(3-fluorophenyl)-1,3-thiazol-2-yl]-1,4-diazatricyclo[4.3.1.1^3,8]undecane], the Ki was found to be 37.7 nM. The figure for `Fc1ccc(-c2cnc(N3CC4CC5CC3CN(C5)C4)s2)cc1` (stereo not shown) [Example 110, 4-[5-(4-fluorophenyl)-1,3-thiazol-2-yl]-1,4-diazatricyclo[4.3.1.1^3,8]undecane] is 53.6 nM. The figure for `Clc1ccc2nc(N3CC4CC5CC3CN(C5)C4)sc2c1` (stereo not shown) [Example 111, 4-(6-chloro-1,3-benzothiazol-2-yl)-1,4-diazatricyclo[4.3.1.1^3,8]undecane] is 114 nM; for `Clc1ccc2nc(N3CC4CC5CC3CN(C5)C4)oc2c1` (stereo not shown) [Example 112, 4-(6-chloro-1,3-benzoxazol-2-yl)-1,4-diazatricyclo[4.3.1.1^3,8]undecane] it is 35.5 nM. Next, `c1ccc2sc(N3CC4CC5CC3CN(C5)C4)nc2c1` (stereo not shown) [Example 113, 4-(1,3-benzothiazol-2-yl)-1,4-diazatricyclo[4.3.1.1^3,8]undecane]: above 10000 nM.

Usually Ki stands for the equilibrium dissociation constant of an inhibitor or competing ligand from its target. A lower Ki goes with higher affinity.

For the origin of these results see US8846661B2, “Diazahomoadamantane derivatives and methods of use thereof” (AbbVie Inc., priority 2009, dated 2014).
